Data set [1] is described as follows: Binding affinity to calcium nitrate in anhydrous dimethyl-d6-sulfoxide solvent by proton magnetic resonance analysis.
Data set [2] in a line: Binding affinity to magnesium salt in methanol-d4 solvent by proton magnetic resonance analysis.
Data set [3] in a line: Binding affinity to calcium salt in methanol-d4 solvent by proton magnetic resonance analysis.
Data set [4] is described as follows: Octanol-phosphate buffer apparent partition coefficient, log D of the compound at pH 7.4 by GLC analysis. It is filed as physicochemical.
Data set [5] can be described thus: Binding affinity to magnesium nitrate in anhydrous dimethyl-d6-sulfoxide solvent by proton magnetic resonance analysis.
A short description of data set [6]: Therapeutic index, ratio of LD50 for CF1 mouse to ED50 for antiarrhythmic activity in CF1 mouse. Particulars: in vivo.
Data set [7] can be described thus: Acute toxicity in ip dosed CF1 mouse. Particulars: in vivo.
The next data set concerns Mus musculus. Kind of data set: Antiarrhythmic activity in ip dosed CF1 mouse by chloroform-fibrillation assay based ECG analysis. It is filed as functional. Particulars: CF1, Heart.

Calls of active or inactive are those of the source. The calls are words filed in the database; no cut-off is given here.

A word on the logD: it is the decadic logarithm of the distribution of all forms, ionised or not, between an organic phase and buffer at a given pH. By LD50 is commonly meant the dose at which mortality reaches 50%. A high value points to a less toxic substance. A word on the ED50: it is the dose at which the effect has come halfway, by size or by number of responders. The low end stands for greater potency, the high end for weaker potency.

With `C1CCN2C[C@@H]3C[C@@H](CN4CCCC[C@@H]34)[C@H]2C1.O.O.O.O.O.O=S(=O)(O)O` [SPARTEINE SULFATE], the result in data set [1] and in data set [5] was inactive. Also, the result in data set [2] and in data set [3] was Active. For the same compound, in data set [4], the logD was -1.57. Also, the selectivity ratio in data set [6] is 0.89. Further, in data set [7], the LD50 came to 134 µmol/kg. The same compound had a median effective dose (ED50) in the data set on Mus musculus of 150 µmol/kg.

As for `Br.CCCCN1CC2CC(CN(C)C2)C1`, in data set [4], the pH-dependent lipophilicity (logD) was -3.39. In data set [6], the selectivity ratio was found to be 1.08. The compound also had an LD50 in data set [7] of 207 µmol/kg. The compound also registered an ED50 in the data set with Mus musculus of 192 µmol/kg.

Consider `CCCCN1CC2CC(C1)CN(CCCC)C2.Cl`, for which, in data set [4], the pH-dependent lipophilicity (logD) was -2.07. Moreover, the selectivity ratio in data set [6] amounted to 1.23. This compound also came in with an LD50 in data set [7] of 196 µmol/kg. This compound also returned an ED50 with Mus musculus of 170 µmol/kg.

With `CN1CC2CC(C1)CN(C(c1ccccc1)c1ccccc1)C2.Cl`, the log distribution coefficient (logD) in data set [4] was -0.43. Also, in data set [6], the selectivity ratio stood at 0.87. In addition, in data set [7], the LD50 turned out to be 225 µmol/kg. The ED50 in the data set with Mus musculus turned out to be 259 µmol/kg.

As for `Cl.c1ccc(CN2CC3CC(C2)CN(Cc2ccccc2)C3)cc1`, the outcome in data set [1] and in data set [5] was inactive. For the same compound, the pH-dependent lipophilicity (logD) in data set [4] was -0.43. Moreover, in data set [6], the selectivity ratio amounted to 1.24. This compound displayed an LD50 in data set [7] of 199 µmol/kg. In the data set with Mus musculus, this compound returned a median effective dose (ED50) of 160 µmol/kg.

Regarding `CCCCN1CC2CC(C1)CN(Cc1ccccc1)C2.Cl`, the outcome in data set [1] and in data set [5] was inactive. For the same compound, the logD in data set [4] is -1.22. In addition, in data set [6], the selectivity ratio stood at 1.25. Besides, in data set [7], the LD50 worked out at 198 µmol/kg. Further, in the data set on Mus musculus, it took a dose of 159 µmol/kg to reach the 50% effect level (ED50).

For the compound `CC(C)C1C2CC(CN(C)C2)CN1C.Cl` (stereo not given), in data set [4], the pH-dependent lipophilicity (logD) is -3.4. The selectivity ratio in data set [6] was found to be 1.46. The LD50 in data set [7] was found to be 279 µmol/kg. It took a dose of 191 µmol/kg to reach the 50% effect level with Mus musculus (ED50).

Regarding `CN1CC2CC(C1)CN(Cc1ccccc1)C2.CS(=O)(=O)O`, the outcome in data set [2] and in data set [3] was Active. The logD in data set [4] was -2.57. Further, the selectivity ratio in data set [6] is 1.23. The compound also registered a median lethal dose (LD50) in data set [7] of 189 µmol/kg. This compound also came in with an ED50 in the data set on Mus musculus of 154 µmol/kg.

As for `CC(C)N(CCC(C(N)=O)(c1ccccc1)c1ccccn1)C(C)C` (stereo not given) [DISOPYRAMIDE], the selectivity ratio in data set [6] was determined as 8.4. Also, the median lethal dose (LD50) in data set [7] came out at 504 µmol/kg. For the same compound, it took a dose of 60 µmol/kg to reach the 50% effect level in the data set with Mus musculus (ED50).

The record behind these values is ChEMBL document CHEMBL3272108, “Analogues of sparteine. 5. Antiarrhythmic activity of selected N,N'-disubstituted bispidines” (J Med Chem, 1977).
